Data taken from patent US20260258084A1, “New Peptides as Selective IL-23 Receptor Antagonists” (Sanofi, priority 2022, published 2026).
Values after ≈ are worked out from the molar mass of the structure shown. Where two headings read alike, the source gives them in different places. Starred links: 1 amine or outer side, 2 acyl side, 3 side chain; linkers in the order of their positions; H or OH if unused. Positions of bridges follow the written chain, without caps; N, C: chain ends. Non-standard residues stand in square brackets, D forms with d. Residues, ends and D or L forms follow the SMILES beside them. *: point of attachment. X5 = CN(C(=O)CCC(=O)[*:3])[C@@H](CS[*:2])C(=O)[*:1]; Trp(7-Me) = Cc1cccc2c(C[C@H](N)C(=O)O)c[nH]c12; X1 = O=C(CCCCN[*:3])N[C@@H](CS[*:2])C(=O)[*:1]; 2Nal = N[C@@H](Cc1ccc2ccccc2c1)C(=O)O; 3Pal = N[C@@H](Cc1cccnc1)C(=O)O; Lys(Me) = CNCCCC[C@H](N)C(=O)O; αMeP = C[C@@]1(C(=O)O)CCCN1; Thp = NC1(C(=O)O)CCOCC1; Me2NCH2CH2 = CN(C)CC*; Aib = CC(C)(N)C(=O)O; Ava = NCCCCC(=O)O; Sar = CNCC(=O)O

What was measured:
Pancreatin = experiment: Protease stability in simulated intestinal fluid (Pancreatin-SIF, FaSSIF); format: in vitro ADME; settings: 1 μM peptide, 37° C.; for remaining at 1 h, 1 µM: 60 min, read-out: FaSSIF 60 (min), remaining percent of peptide; for remaining at 2 h, 1 µM: 120 min, read-out: FaSSIF 120 (min), remaining percent of peptide; for remaining at 4 h, 1 µM: 240 min, read-out: FaSSIF 240 (min), remaining percent of peptide
Summary of the method: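 LC-MS/MS peak areas at 0, 60, 120 and 240 min, normalised to time 0 as 100%, give percent remaining. Reactions used 1 μM final peptide at 37° C in pancreatin-SIF (1 mg pancreatin in 10 mL SIF concentrate) and were stopped with ethanol containing 0.1% HCOOH.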

Pepsin = tested on: T1, Pepsin; experiment: Protease stability in simulated gastric fluid (Pepsin-SGF, FaSSGF); format: in vitro ADME; settings: simulated gastric fluid with pepsin (Pepsin-SGF), 60 min, 1 μM peptide, 37° C., read-out: FaSSGF 60 (min), remaining percent of peptide
T1 construct: purchased Merck Millipore
Summary of the method: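 LCMS/MS peak areas, normalised to the time-0 sample as 100%, give percent remaining. Conditions: 37° C incubation of 1 μM final peptide in simulated gastric fluid with pepsin; ethanol/0.1% HCOOH quench at 0, 60, 120, 240 min.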

[1] = molecular target: T2, human interleukin-23 receptor (recombinant human IL-23R-Fc chimera) (Homo sapiens, UniProt Q5VWK5); experiment: Human ELISA IL23/IL23R (assay for specific human IL23R antagonists); format: binding; settings: Table 10; read-out: Human ELISA IL23/IL23R IC50
T2 construct: Fc (IgG Fc fusion)
Summary of the method: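 Competition format: peptide dilutions compete for IL23R-Fc chimera (0.1 μg/ml final, 60 min, room temperature) binding to immobilized human IL23 coated at […] overnight at 4 °C. Read-out is fluorogenic HRP signal from goat anti-hu-IgG1 detecting captured receptor.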

[2] = tested on: IL-23 induced STAT3 signaling in HEK-Blue™ IL-23 cells; experiment: IL-23 induced STAT3 signaling in HEK-Blue IL-23 cells (SEAP reporter); format: cell-based; settings: human IL23 0.25 ng/ml, read-out: pSTAT3
Summary of the method: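 Secreted SEAP, read at OD 620-655 nm after 45 min QUANTI-Blue development, reports STAT3 activation. Beforehand, cells were exposed to peptide dilutions for 60 min at 37 °C and then to 0.25 ng/ml final human IL-23 overnight, at 10,000 cells/well.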

[3] = Solubility testing of peptides at different pH; format: physicochemical; settings: target concentration 1 mg/ml, 2 hours agitation
Summary of the method: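 Four buffers were used: 50 mM HCl pH 1.2 and 50 mM phosphate at pH 6.5, 7.4 and 9.0, each receiving dried-down compound at a 1 mg/mL target. After 2 h gentle shaking and 0.45 μm filtration, UV peak areas were compared with a DMSO standard curve of known concentration, allowing for extinction coefficients.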

[4] = 50 mM HCl buffer, 50 mM HCl pH 1.2, read-out: Solubility Buffer pH 1.2
[5] = 50 mM phosphate buffer pH 6.5, read-out: Solubility Buffer pH 6.5
[6] = 50 mM phosphate buffer pH 7.4, read-out: Solubility Buffer pH 7.4
[7] = 50 mM phosphate buffer pH 9.0, read-out: Solubility Buffer pH 9.0

Row | SMILES | remaining at 1 h, 1 µM (Pancreatin) | remaining at 2 h, 1 µM (Pancreatin) | remaining at 4 h, 1 µM (Pancreatin) | remaining at 1 h, 1 µM (Pepsin) | IC50 [1] | IC50 [2] | solubility at 2 h [3, 4] | solubility at 2 h [3, 5] | solubility at 2 h [3, 6] | solubility at 2 h [3, 7]
1 | CC(=O)NCCCC[C@@H]1NC(=O)[C@H](Cc2c[nH]c3c(C)cccc23)NC(=O)[C@@H](NC(C)=O)CCCCNC(=O)[C@@H]2CSSC[C@H](NC1=O)C(=O)N[C@@H](Cc1ccc(OCCN(C)C)cc1)C(=O)N[C@@H](Cc1ccc3ccccc3c1)C(=O)NC1(CCOCC1)C(=O)N[C@H](C(=O)N[C@@H](CC(N)=O)C(=O)N[C@@H](Cc1cccnc1)C(=O)N(C)CC(N)=O)CCC(=O)NCCCCC(=O)N2 [compound 66] (Ac-K[Trp(7-Me)]K(Ac)CY(Me2NCH2CH2)[2Nal][Thp]EN[3Pal][Sar]-NH2; linker 1-4-8 via X1) | 94% | 94% | 88% | 94% | 0.52 nM | 0.15 nM | ≥ 1630 µg/mL | ≥ 1040 µg/mL | ≥ 1290 µg/mL | ≥ 1130 µg/mL
2 | C[C@@H](O)[C@@H]1NC(=O)[C@H](CC(N)=O)NC(=O)[C@@H]2CSSC[C@H](NC(=O)[C@H](CCC(N)=O)NC(=O)[C@H](Cc3c[nH]c4ccccc34)NC1=O)C(=O)N[C@@H](Cc1ccc(OCCN(C)C)cc1)C(=O)N[C@H](Cc1ccc3ccccc3c1)C(=O)NC(C)(C)C(=O)N[C@H](C(=O)N[C@@H](CC(N)=O)C(=O)N[C@@H](CC(N)=O)C(N)=O)CCC(=O)NCCCCC(=O)N2 [compound 8] | 97% | 91% | 82% | 92% | 0.24 nM | 5.54 nM | ≥ 990 µg/mL | ≥ 1000 µg/mL | ≥ 1020 µg/mL | ≥ 1040 µg/mL
3 | CC(=O)NCCCC[C@@H]1NC(=O)[C@H](Cc2c[nH]c3c(C)cccc23)NC(=O)[C@H]([C@@H](C)O)NC(=O)[C@H](CC(N)=O)NC(=O)[C@@H]2CSSC[C@H](NC1=O)C(=O)N[C@@H](Cc1ccc(OCCN(C)C)cc1)C(=O)N[C@@H](Cc1ccc3ccccc3c1)C(=O)NC1(CCOCC1)C(=O)N[C@H](C(=O)N[C@@H](CO)C(=O)N[C@@H](Cc1cccnc1)C(=O)N(C)CC(N)=O)CCC(=O)NCCCCC(=O)N2 [compound 56] ([Ava]CNT[Trp(7-Me)]K(Ac)CY(Me2NCH2CH2)[2Nal][Thp]ES[3Pal][Sar]-NH2; disulfide 2-7; lactam N-11) | 90% | 76% | 77% | 86% | 0.57 nM | 0.16 nM | ≥ 1090 µg/mL | ≥ 920 µg/mL | ≥ 1030 µg/mL | 
4 | COc1ccc(C[C@@H]2NC(=O)[C@@H]3CSSC[C@H](NC(=O)CCCCNC(=O)CC[C@@H](C(=O)N[C@@H](CC(N)=O)C(=O)N[C@@H](CC(N)=O)C(N)=O)NC(=O)C(C)(C)NC(=O)[C@H](Cc4ccc5ccccc5c4)NC2=O)C(=O)N[C@@H](CC(N)=O)C(=O)N[C@@H]([C@@H](C)O)C(=O)N[C@@H](Cc2c[nH]c4ccccc24)C(=O)N[C@@H](CCC(N)=O)C(=O)N3)cc1 [compound 1] ([Ava]CNTWQCY(Me)[2Nal][Aib]ENN-NH2; disulfide 2-7; lactam N-11) | 72% | 74% | 58% | 2% | 0.72 nM | 18.5 nM | 100 µg/mL (≈ 60.6 µM) | < 50 µg/mL | < 50 µg/mL | 
5 | CC(=O)NCCCC[C@@H]1NC(=O)[C@H](Cc2c[nH]c3c(C)cccc23)NC(=O)[C@@H](NC(C)=O)CCCCNC(=O)[C@@H]2CSSC[C@H](NC1=O)C(=O)N[C@@H](Cc1ccc(OCCN(C)C)cc1)C(=O)N[C@@H](Cc1ccc3ccccc3c1)C(=O)NC1(CCOCC1)C(=O)N[C@H](C(=O)N[C@@H](CC(N)=O)C(=O)N[C@@H](Cc1cccnc1)C(=O)N(C)CC(N)=O)CCCCN(C)C(=O)CCC(=O)N2C [compound 74] (Ac-K[Trp(7-Me)]K(Ac)CY(Me2NCH2CH2)[2Nal][Thp][Lys(Me)]N[3Pal][Sar]-NH2; linker 1-4-8 via X5) | 87% | 84% | 78% | 92% | 0.54 nM | 0.12 nM | ≥ 1390 µg/mL | ≥ 980 µg/mL | 330 µg/mL (≈ 174 µM) | 180 µg/mL (≈ 95.1 µM)
6 | CC(=O)NCCCC[C@@H]1NC(=O)[C@H](Cc2c[nH]c3c(C)cccc23)NC(=O)[C@H]([C@@H](C)O)NC(=O)[C@H](CC(N)=O)NC(=O)[C@@H]2CSSC[C@H](NC1=O)C(=O)N[C@@H](Cc1ccc(OCCN(C)C)cc1)C(=O)N[C@@H](Cc1ccc3ccccc3c1)C(=O)NC1(CCOCC1)C(=O)N[C@H](C(=O)N[C@@H](CC(N)=O)C(=O)N[C@@H](Cc1c[nH]cn1)C(=O)N1CCC[C@@]1(C)C(N)=O)CCC(=O)NCCCCC(=O)N2 [compound 55] ([Ava]CNT[Trp(7-Me)]K(Ac)CY(Me2NCH2CH2)[2Nal][Thp]ENH[αMeP]-NH2; disulfide 2-7; lactam N-11) | 89% | 80% | 82% | 91% | 0.4 nM | 0.95 nM | ≥ 1110 µg/mL | ≥ 1040 µg/mL | ≥ 960 µg/mL | 
7 | C[C@@H](O)[C@@H]1NC(=O)[C@H](CC(N)=O)NC(=O)[C@@H]2CSSC[C@H](NC(=O)[C@H](CCC(N)=O)NC(=O)[C@H](Cc3c[nH]c4ccccc34)NC1=O)C(=O)N[C@@H](Cc1ccc(OCCN)cc1)C(=O)N[C@H](Cc1ccc3ccccc3c1)C(=O)NC(C)(C)C(=O)N[C@H](C(=O)N[C@@H](CC(N)=O)C(=O)N[C@@H](CC(N)=O)C(N)=O)CCC(=O)NCCCCC(=O)N2 [compound 5] | 94% | 86% | 64% | 82% | 0.61 nM | 9.66 nM | ≥ 1110 µg/mL | ≥ 1230 µg/mL | ≥ 1230 µg/mL | 
8 | CC(=O)NCCCC[C@@H]1NC(=O)[C@H](Cc2c[nH]c3c(C)cccc23)NC(=O)[C@H]([C@@H](C)O)NC(=O)[C@H](CC(N)=O)NC(=O)[C@@H]2CSSC[C@H](NC1=O)C(=O)N[C@@H](Cc1ccc(OCCN(C)C)cc1)C(=O)N[C@@H](Cc1ccc3ccccc3c1)C(=O)NC1(CCOCC1)C(=O)N[C@H](C(=O)N[C@@H](CC(N)=O)C(=O)N[C@@H](Cc1c[nH]cn1)C(N)=O)CCC(=O)NCCCCC(=O)N2 [compound 21] ([Ava]CNT[Trp(7-Me)]K(Ac)CY(Me2NCH2CH2)[2Nal][Thp]ENH-NH2; disulfide 2-7; lactam N-11) | 89% | 77% | 75% | 91% | 0.31 nM | 2.67 nM | ≥ 1080 µg/mL | ≥ 1010 µg/mL | ≥ 970 µg/mL | 230 µg/mL (≈ 126 µM)
